Earlier results on one compound are cited in US20070122458A1, “Nicotine and Chocolate Compositions” (priority 2001, published 2007).

For data set [1] the following is noted: smoker, cigarette smoking.
The conditions of data set [2]: nasal solution insufflation; smokers and non-smokers; not "sweets".
The conditions of data set [3]: intravenous infusion; smokers and non-smokers similarly.

Molecules are shown by their SMILES.

`CN1CCCC1c1cccnc1` (stereo not drawn) [nicotine]: the “time to peak blood levels of nicotine after starting smoking” value in data set [1] is 5 to 10 min. For the same compound, the “perceived taste intensity of dietary "fat"” value in data set [2] is given as “significantly reduced”. Besides, in data set [3], the “increase of the resting metabolic rate” value is reported as 6.5%.
